Measurements from patent US10266510B2, “Antimicrobial and cytotoxic compounds and methods for treating cancer, a bacterial infection, and/or a fungal infection” (King Abdulaziz University, priority 2017, dated 2019).

Legend:
Assay in all cases: Well diffusion agar method, inhibition zone
Assay type in all cases: cell-based
[1] = tested on: Pseudomonas aeruginosa ATCC 9027
Text: (§1) The ability to inhibit the growth of Gram-positive and Gram-negative bacteria, yeasts and filamentous fungi was observed using an overlay method (S. R. Connell, D. M. Tracz, K. H. Nierhaus, D. E. Taylor, Antimicrob. Agents Chemother. 47, 3675 (2003), incorporated herein by reference in its entirety).
(§2) The common pathogenic and food spoilage microorganisms were selected for their relevance in bakery products and other food: the gram-positive bacteria: Bacillus subtilits NRRL-B-4219, Staphylococcus aureus ATCC 6538, Enterococcus faecalis ATCC 19433; the gram negative bacteria: Escherichia coli ATCC 25922, Pseudomonas aeruginosa ATCC 9027, Proteus sp.; yeasts, such as Candida albicans ATCC 10231; and fungi: Aspergillus niger NRRL 2766 (equivalent to ATCC 16888), and Aspergillus flavus ATCC 16883. The bacteria were slanted on nutrient agar (Merck, Darmstadt, Germany), yeast was slanted and mentioned on Sabaroud's agar medium (Lab M., Bury, Lancashire, UK) and the fungi was slanted and mentioned on the potato Dextrose Agar medium (Lab M Limited, Bury, Lancashire, UK). Mueller-Hinton agar (Lab M., Bury, Lancashire, UK) following the manufacturer's instructions was used for the assay.
(§3) All compounds were dissolved in dimethyl sulfoxide (RFCL Limited, New Delhi, India) at 50 μg/mL concentration as shown in Table 4 in comparison with different standard antibiotics. Antibiotic discs of Streptomycin (S) (10 μg), Oxytetracycline (T) (30 μg), and Tetracyciline (TE) (30 μg) were used as positive controls for bacteria. Neomycin (N) (30 μg), was used for fungi.
(§4) The antibacterial screening was performed with the well diffusion agar method (S. T. Williams, M. Goodfellow, E. M. H. Wellington, J. C. Vickers, G. Alderson, P. H. A. Sneath, S. M. J. Sackins, A. M. Mortimer, J. Gen. Microbiol. 129, 1815(1983); and B. Bonev, J. Hooper, J. Parisot, J. Antimicrob. Chemother., 61, 1295(2008), each incorporated herein by reference in their entirety). The organisms were streaked in radial patterns on the agar plates. Plates were incubated under aerobic conditions at 37° C. and 28° C. for 24 h and 48 h for bacteria and fungi, respectively. All prepared solutions were treated under the same conditions under the same incubated plates. All tests were performed in triplicate. Plates were examined for evidence of antimicrobial activities, represented by a zone of inhibition of the microorganism's growth around the holes, and diameters of clear zones were expressed in millimeters (R. Cruickshank, J. P. Duguid, B. P. Marmion, R. H. A. Swain, The practice of medicinal microbiology. In Medical Microbiology, 12th ed.; Churchill Livingstone: Edinburgh, UK, Volume 11, pp. 196-202 (1975), incorporated herein by reference in its entirety).

[2] = tested on: Candida albicans ATCC 10231
Text: as §1, §2, §3, §4

[3] = tested on: Aspergillus niger NRRL 2766
Text: as §1, §2, §3, §4

[4] = tested on: Escherichia coli ATCC 25922
Text: as §1, §2, §3, §4

[5] = tested on: Bacillus subtilits NRRL-B-4219
Text: as §1, §2, §3, §4

[6] = tested on: Proteus sp.
Text: as §1, §2, §3, §4

[7] = tested on: Aspergillus flavus ATCC 16883
Text: as §1, §2, §3, §4

[8] = tested on: Staphylococcus aureus ATCC 6538
Text: as §1, §2, §3, §4

[9] = tested on: Enterococcus faecalis ATCC 19433
Text: as §1, §2, §3, §4

| SMILES | Inhibition zone, P. aeruginosa ([1]; standard antibiotic disc 10 μg) [mm] | Inhibition zone, C. albicans ([2]; standard antibiotic disc 10 μg) [mm] | Inhibition zone, A. niger ([3]; standard antibiotic disc 10 μg) [mm] | Inhibition zone, E. coli ([4]; standard antibiotic disc 10 μg) [mm] | Inhibition zone, B. subtilits ([5]; standard antibiotic disc 10 μg) [mm] | Inhibition zone, Proteus sp. ([6]; standard antibiotic disc 10 μg) [mm] | Inhibition zone, A. flavus ([7]; standard antibiotic disc 10 μg) [mm] | Inhibition zone, S. aureus ([8]; standard antibiotic disc 10 μg) [mm] | Inhibition zone, Ent. faecalis ([9]; standard antibiotic disc 10 μg) [mm] | Inhibition zone, P. aeruginosa ([1]; standard antibiotic disc 30 μg) [mm] | Inhibition zone, C. albicans ([2]; standard antibiotic disc 30 μg) [mm] | Inhibition zone, A. niger ([3]; standard antibiotic disc 30 μg) [mm] | Inhibition zone, E. coli ([4]; standard antibiotic disc 30 μg) [mm] | Inhibition zone, B. subtilits ([5]; standard antibiotic disc 30 μg) [mm] | Inhibition zone, Proteus sp. ([6]; standard antibiotic disc 30 μg) [mm] | Inhibition zone, A. flavus ([7]; standard antibiotic disc 30 μg) [mm] | Inhibition zone, S. aureus ([8]; standard antibiotic disc 30 μg) [mm] | Inhibition zone, Ent. faecalis ([9]; standard antibiotic disc 30 μg) [mm] |
| --- | --- | --- | --- | --- | --- | --- | --- | --- | --- | --- | --- | --- | --- | --- | --- | --- | --- | --- |
| [H]/N=C(/N)N[C@H]1[C@H](O)[C@@H](O)[C@H](O[C@@H]2O[C@@H](C)[C@](O)(C=O)[C@H]2O[C@@H]2O[C@@H](CO)[C@H](O)[C@@H](O)[C@@H]2NC)[C@@H](N/C(N)=N\[H])[C@@H]1O (relative stereo) [S*, Streptomycin] | 0 | 12 | 0 | 0 | 14 | 0 | 0 | 0 | 0 |  |  |  |  |  |  |  |  |  |
| NC[C@@H]1O[C@H](O[C@H]2[C@@H](O)[C@H](O[C@@H]3[C@@H](O)[C@H](N)C[C@H](N)[C@H]3O[C@H]3O[C@H](CN)[C@@H](O)[C@H](O)[C@H]3N)O[C@@H]2CO)[C@H](N)[C@@H](O)[C@@H]1O [N*, Neomycin] |  |  |  |  |  |  |  |  |  | 0 | 0 | 16 | 0 | 0 | 0 | 14 | 0 | 0 |
| CN(C)[C@@H]1C(O)=C(C(N)=O)C(=O)[C@@]2(O)C(O)=C3C(=O)c4c(O)cccc4[C@@](C)(O)[C@H]3[C@H](O)[C@@H]12 [T*, Oxytetracycline] |  |  |  |  |  |  |  |  |  | 0 | 0 | 0 | 0 | 30 | 0 | 0 | 0 | 0 |
| CN(C)[C@@H]1C(O)=C(C(N)=O)C(=O)[C@@]2(O)C(O)=C3C(=O)c4c(O)cccc4[C@@](C)(O)[C@H]3C[C@@H]12 [TE*, Tetracyciline] |  |  |  |  |  |  |  |  |  | 0 | 0 | 16 | 0 | 10 | 0 | 14 | 0 | 0 |
